Assay results as given in patent US8691800B2, “Quinoline derivatives as antibacterial agents” (Janssen Pharmaceutica N.V., priority 2005, dated 2014).
Values after ≈ are worked out from the molar mass of the structure shown.

Experiments:
[1] = tested on: Staphylococcus aureus (ATCC25923); assay: Microtitre plate assay, IC90 for bacterial growth; type: cell-based; conditions: for IC90: Staphylococcus aureus, ATCC25923, 90% inhibitory concentration for bacterial growth, read-out: IC90 STA 25923; for IC90 STA 25923: 90% inhibitory concentration for bacterial growth
Method: (§1) The bacteria used in this study were grown overnight in flasks containing 100 ml Mueller-Hinton Broth (Becton Dickinson—cat. no. 275730) in sterile de-ionized water, with shaking, at 37° C. Stocks (0.5 ml/tube) were stored at 70° C. until use. Bacteria titrations were performed in microtiter plates and colony forming units (CFUs) were determined. In general, an inoculum level of approximately 100 CFUs was used for susceptibility testing.
(§2) Anti bacterial Susceptibility Testing: IC90 Determination
(§3) Flat-bottom, sterile 96-well plastic microtiter plates were filled with 180 μl of sterile deionized water, supplemented with 0.25% BSA. Subsequently, stock solutions (7.8× final test concentration) of compounds were added in 45 μl volumes in column 2. Serial five-fold dilutions (45 μl in 180 μl) were made directly in the microtiter plates from column 2 to reach column 11. Untreated control samples with (column 1) and without (column 12) inoculum were included in each microtiter plate. Depending on the bacteria type, approximately 10 to 60 CFU per well of bacteria inoculum (100 TCID50), in a volume of 100 μl in 2.8× Mueller-Hinton broth medium, was added to the rows A to H, except column 12. The same volume of broth medium without inoculum was added to column 12 in row A to H. The cultures were incubated at 37° C. for 24 hours under a normal atmosphere (incubator with open air valve and continuous ventilation). At the end of incubation, one day after inoculation, the bacterial growth was quantitated fluorometrically. Therefore resazurin (0.6 mg/ml) was added in a volume of 20 μl to all wells 3 hours after inoculation, and the plates were re-incubated overnight. A change in colour from blue to pink indicated the growth of bacteria. The fluorescence was read in a computer-controlled fluorometer (Cytofluor Biosearch) at an excitation wavelength of 530 nm and an emission wavelength of 590 nm. The % growth inhibition achieved by the compounds was calculated according to standard methods. The IC90 (expressed in μg/ml) was defined as the 90% inhibitory concentration for bacterial growth.

[2] = tested on: Bacillus subtilis (ATCC43639); assay: Microtitre plate assay, IC90 for bacterial growth; type: cell-based; conditions: for IC90: Bacillus subtilis, ATCC43639, 90% inhibitory concentration for bacterial growth, read-out: IC90 BSU 43639; for IC90 BSU 43639: 90% inhibitory concentration for bacterial growth
Method: as §1, §2, §3

[3] = tested on: methicilline resistant Staphylococcus aureus (MRSA) (a clinical isolate from the University of Antwerp); assay: Microtitre plate assay, IC90 for bacterial growth; type: cell-based; conditions: 90% inhibitory concentration for bacterial growth; for IC90: Staphylococcus aureus, MRSA, read-out: IC90 STA RMETHIC
Method: as §1, §2, §3

[4] = tested on: Streptococcus mutans (ATCC33402); assay: Microtitre plate assay, IC90 for bacterial growth; type: cell-based; conditions: Streptococcus mutans, ATCC33402, 90% inhibitory concentration for bacterial growth, read-out: IC90 SMU 33402
Method: as §1, §2, §3

[5] = tested on: Listeria monocytogenes (ATCC49594); assay: Microtitre plate assay, IC90 for bacterial growth; type: cell-based; conditions: for IC90: Listeria monocytogenes, ATCC49594, 90% inhibitory concentration for bacterial growth, read-out: IC90 LMO 49594; for IC90 LMO 49594: 90% inhibitory concentration for bacterial growth
Method: as §1, §2, §3

[6] = tested on: Pseudomonas aeruginosa (ATCC27853); assay: Microtitre plate assay, IC90 for bacterial growth; type: cell-based; conditions: for IC90 PAE 27853: 90% inhibitory concentration for bacterial growth; for IC90: Pseudomonas aeruginosa, ATCC27853, 90% inhibitory concentration for bacterial growth, read-out: IC90 PAE 27853
Method: as §1, §2, §3

[7] = tested on: Streptococcus pneumoniae (ATCC6305); assay: Microtitre plate assay, IC90 for bacterial growth; type: cell-based; conditions: for IC90 SPN 6305: 90% inhibitory concentration for bacterial growth; for IC90: Streptococcus pneumoniae, ATCC6305, 90% inhibitory concentration for bacterial growth, read-out: IC90 SPN 6305
Method: as §1, §2, §3

[8] = tested on: Streptococcus pyogens (ATCC8668); assay: Microtitre plate assay, IC90 for bacterial growth; type: cell-based; conditions: for IC90 SPY 8668: 90% inhibitory concentration for bacterial growth; for IC90: Streptococcus, ATCC8668, 90% inhibitory concentration for bacterial growth, read-out: IC90 SPY 8668
Method: as §1, §2, §3

[9] = tested on: Staphylococcus aureus (ATCC29213); assay: Microtitre plate assay, IC90 for bacterial growth; type: cell-based; conditions: 90% inhibitory concentration for bacterial growth, 24 hours at 37° C., resazurin; for IC90: Staphylococcus aureus, ATCC29213, 24 h, read-out: IC90 STA 29213
Method: as §1, §2, §3

[10] = tested on: Enterococcus faecalis (ATCC29212); assay: Microtitre plate assay, IC90 for bacterial growth; type: cell-based; conditions: for IC90 EFA 29212: 90% inhibitory concentration for bacterial growth; for IC90: Enterococcus faecalis, ATCC29212, 90% inhibitory concentration for bacterial growth, read-out: IC90 EFA 29212
Method: as §1, §2, §3

| Compound | IC90 [1] [µg/mL] | IC90 [2] [µg/mL] | IC90 [3] [µg/mL] | IC90 [4] [µg/mL] | IC90 [5] [µg/mL] | IC90 PAE 27853 [6] [µg/mL] | IC90 SPN 6305 [7] [µg/mL] | IC90 SPY 8668 [8] [µg/mL] | IC90 STA 29213 [9] [µg/mL] | IC90 EFA 29212 [10] [µg/mL] | melting point [°C] | IC90 STA 25923 [1] [µg/mL] | IC90 BSU 43639 [2] [µg/mL] | IC90 STA RMETHIC [3] [µg/mL] | IC90 LMO 49594 [5] [µg/mL] | IC90 [7] [µg/mL] | IC90 [8] [µg/mL] | IC90 [6] [µg/mL] | IC90 [9] [µg/mL] | IC90 [10] [µg/mL] |
| --- | --- | --- | --- | --- | --- | --- | --- | --- | --- | --- | --- | --- | --- | --- | --- | --- | --- | --- | --- | --- |
| COc1nc2ccc(Br)cc2cc1C(c1ccccc1)C1(c2cccc3ccccc23)CCN(C)CO1 (single isomer, unassigned) [Compound 1] | 55.4 (≈ 100 µM) | 44 (≈ 79.5 µM) | 55.4 (≈ 100 µM) | 44 (≈ 79.5 µM) | 44 (≈ 79.5 µM) | 44.0 (≈ 79.5 µM) | 5.5 (≈ 9.94 µM) | 44.0 (≈ 79.5 µM) | 55.4 (≈ 100 µM) | 55.4 (≈ 100 µM) | 112 | – | – | – | – | – | – | – | – | – |
| COc1nc2ccc(-c3ccccc3)cc2cc1C(c1ccccc1)C1(c2cccc3ccccc23)CCN(C)CO1 (single isomer, unassigned) [Compound 2] | – | – | – | – | – | 55.1 (≈ 100 µM) | 5.5 (≈ 9.99 µM) | 55.1 (≈ 100 µM) | 55.1 (≈ 100 µM) | 55.1 (≈ 100 µM) | – | 55.1 (≈ 100 µM) | 55.1 (≈ 100 µM) | 55.1 (≈ 100 µM) | 55.1 (≈ 100 µM) | – | – | – | – | – |
| COc1nc2ccc(Cl)cc2cc1C(c1ccccc1)C1(c2cccc3ccccc23)CCN(C)CO1 (single isomer, unassigned) [Compound 3] | – | – | – | – | – | – | – | – | 12.8 (≈ 25.1 µM) | – | – | – | – | – | – | – | – | – | – | – |
| COc1ccc2nc(OC)c(C(c3ccccc3)C3(c4cccc5ccccc45)CCN(C)CO3)cc2c1 (single isomer, unassigned) [Compound 4] | – | – | 50.5 (≈ 100 µM) | 20.1 (≈ 39.8 µM) | – | 50.5 (≈ 100 µM) | – | – | 50.5 (≈ 100 µM) | 50.5 (≈ 100 µM) | – | 50.5 (≈ 100 µM) | 50.5 (≈ 100 µM) | – | 25.3 (≈ 50.1 µM) | 1 (≈ 1.98 µM) | 20.1 (≈ 39.8 µM) | – | – | – |
| COc1nc2ccc(C)cc2cc1C(c1ccccc1)C1(c2cccc3ccccc23)CCN(C)CO1 (single isomer, unassigned) [Compound 5] | 48.9 (≈ 100 µM) | 48.9 (≈ 100 µM) | 48.9 (≈ 100 µM) | 24.5 (≈ 50.1 µM) | 48.9 (≈ 100 µM) | – | 10.9 (≈ 22.3 µM) | 8.7 (≈ 17.8 µM) | – | – | – | – | – | – | – | – | – | 48.9 (≈ 100 µM) | 48.9 (≈ 100 µM) | 48.9 (≈ 100 µM) |
| COc1nc2ccc(-c3ccco3)cc2cc1C(c1ccccc1)C1(c2cccc3ccccc23)CCN(C)CO1 (single isomer, unassigned) [Compound 6] | 13.6 (≈ 25.2 µM) | 13.6 (≈ 25.2 µM) | – | – | – | – | 2.7 (≈ 4.99 µM) | – | – | – | – | – | – | 54.1 (≈ 100 µM) | – | – | 13.6 (≈ 25.2 µM) | 13.6 (≈ 25.2 µM) | 13.6 (≈ 25.2 µM) | 13.6 (≈ 25.2 µM) |
| COc1nc2ccc(Br)cc2cc1C(c1ccccc1)C1(c2cccc3ccccc23)CCN(C)CO1 (single isomer, unassigned) [Compound 7] | – | – | – | – | – | 13.9 (≈ 25.1 µM) | 13.9 (≈ 25.1 µM) | 13.9 (≈ 25.1 µM) | 13.9 (≈ 25.1 µM) | 13.9 (≈ 25.1 µM) | 108 | – | – | – | – | – | – | – | – | – |
| COc1nc2ccc(-c3ccccc3)cc2cc1C(c1ccccc1)C1(c2cccc3ccccc23)CCN(C)CO1 (single isomer, unassigned) [Compound 9] | 55.1 (≈ 100 µM) | 55.1 (≈ 100 µM) | 55.1 (≈ 100 µM) | – | 55.1 (≈ 100 µM) | – | – | – | – | – | – | – | – | – | – | 4.9 (≈ 8.9 µM) | 55.1 (≈ 100 µM) | 55.1 (≈ 100 µM) | 55.1 (≈ 100 µM) | 55.1 (≈ 100 µM) |
